Assay: Particle size of mometasone furoate before milling, after roller milling and after spray drying
Format: physicochemical
Conditions: before roller milling
Description: Spray Drying Conditions: Inlet temperature=110° C.; Outlet temperature=54° C.; Aspirator=100%; Pump rate=20%; Q flow=50%; Nozzle cap=1.5 mm.
Roller Milling Conditions: Mometasone Furoate—initial median size—19.7 μm. Samples are milled in 250 mL jars for 3 hours with 0.5 mm YTZ media. Particle size diameter (PSD), after 3 hours milling, is measured in water. After milling, the suspension is extracted (needle 22G) from jars and mixed according the table and procedure shown. Procedure for Preparation of the Spray Drying Suspensions: The amounts of HPMC, MCC and H2O used is based on the extracted quantity of the suspension (Table II). HPMC is added as a solution prepared in H2O. HPMC solution is added to the extracted suspension and mixed for 15 minutes. MCC (Grade PH-F20JP, 20 μm) is added and mixed for 15 minutes. Particle size diameter (PSD) is measured after spray drying by dispersing the spray-dried powder in a liquid such as isopropyl palmitate or silicone oil, which are non-solvents for the components and will not alter particle size or cause disintegration of the composite particle. Materials: Mometasone Furoate (Hovione, East Windsor, N.J.); Citric acid, anhydrous (Fisher, Hampton, N.H.); Benzalkonium chloride (Fluka, St. Louis, Mo.); Microcrystalline cellulose (AsahKasei, Glenview, Ill.); Hydroxypropylmethyl cellulose (Colorcon, Harleysville, Pa.). […]

initial median size: 19.7 μm
SMILES: C[C@@H]1C[C@H]2[C@@H]3CCC4=CC(=O)C=C[C@]4(C)[C@@]3(Cl)[C@@H](O)C[C@]2(C)[C@@]1(OC(=O)c1ccco1)C(=O)CCl [Mometasone Furoate, (11β,16α)-9,21-dichloro-11-hydroxy-16-methyl-3,20-dioxopregna-1,4-dien-17-yl 2-furoate]
